Read-outs that look alike come from different tables or passages of the source.
Assays:
[1] = tested on: HT29 colorectal carcinoma; experiment: qHTS cell viability screen (Cell Titer Glo), HT29; format: cell-based
[2] = tested on: PC3 prostate cancer cell line; experiment: qHTS cell viability screen (Cell Titer Glo), PC3; format: cell-based; conditions: PC3 prostate, 72 hours, cell viability Cell Titer Glo, read-out: CC50 PC3
[3] = tested on: MDA-MB-231 breast cancer cell line; experiment: qHTS cell viability screen (Cell Titer Glo), MDA-MB-231; format: cell-based
[4] = Homo sapiens, HT-29, 72 h, HT29 colorectal carcinoma, 72 hours, cell viability Cell Titer Glo, read-out: CC50 HT29
[5] = Homo sapiens, MDA-MB-231, 96 h, MDA-MB-231 breast, 96 hours, cell viability Cell Titer Glo, read-out: CC50 MDA-MB-231
[6] = HT29 colorectal carcinoma, 72 hours, cell viability Cell Titer Glo, read-out: CC50 HT29
[7] = MDA-MB-231 breast, 96 hours, cell viability Cell Titer Glo, read-out: CC50 MDA-MB-231

| melting point [°C] | Structure (SMILES) | CC50 [1, 4] [µM] | CC50 ([2]; 72 h) [µM] | CC50 [3, 5] [µM] | CC50 [1, 6] [µM] | CC50 [2] [µM] | CC50 [3, 7] [µM] | CC50 [1] [µM] | CC50 [3] [µM] |
| --- | --- | --- | --- | --- | --- | --- | --- | --- | --- |
| 94 to 95 | CSc1ccc(/C=C2/C(C)=C(CNS(=O)(=O)c3cccc4ccccc34)c3cc(F)ccc32)cc1 [Compound 38] | 17 ± 3.73 | > 50 | 38.9 ± 10.3 |  |  |  |  |  |
| 152 to 154 | CSc1ccc(/C=C2/C(C)=C(CNS(=O)(=O)c3ccc4ccccc4c3)c3cc(F)ccc32)cc1 [Compound 39] | 25.6 ± 5.91 | > 50 | 12.9 ± 2.39 |  |  |  |  |  |
|  | CSc1ccc(/C=C2/C(C)=C(CNS(=O)(=O)c3cccc4c(N(C)C)cccc34)c3cc(F)ccc32)cc1 [Compound 40] |  |  |  | 38.4 ± 10.1 | > 50 | > 50 |  |  |
|  | COc1cc(/C=C2/C(C)=C(CNS(C)(=O)=O)c3cc(F)ccc32)cc(OC)c1OC [Compound 41] |  |  |  | 20 ± 4.86 | 18.9 ± 2.47 | 12.9 ± 1.79 |  |  |
| 132 to 134 | CCS(=O)(=O)NCC1=C(C)/C(=C/c2cc(OC)c(OC)c(OC)c2)c2ccc(F)cc21 [Compound 42] | 15.6 ± 5.56 | 15.1 ± 1.84 | 6.58 ± 1.39 |  |  |  |  |  |
|  | COc1cc(/C=C2/C(C)=C(CNS(=O)(=O)c3ccccc3)c3cc(F)ccc32)cc(OC)c1OC [Compound 43] |  |  |  | 43.8 ± 23 | 40.9 ± 16.8 | 16.3 ± 3.96 |  |  |
|  | COc1cc(/C=C2/C(C)=C(CNS(=O)(=O)c3ccc(C)cc3)c3cc(F)ccc32)cc(OC)c1OC [Compound 44] |  |  |  | > 50 | > 50 | 44.5 ± 25.7 |  |  |
|  | COc1cc(/C=C2/C(C)=C(CNS(=O)(=O)c3cccc4ccccc34)c3cc(F)ccc32)cc(OC)c1OC [Compound 45] |  |  |  | > 50 | > 50 | > 50 |  |  |
| 118 to 120 | COc1cc(/C=C2/C(C)=C(CNS(=O)(=O)c3ccc4ccccc4c3)c3cc(F)ccc32)cc(OC)c1OC [Compound 46] | > 50 | > 50 | > 50 |  |  |  |  |  |
|  | COc1cc(/C=C2/C(C)=C(CNS(=O)(=O)c3cccc4c(N(C)C)cccc34)c3cc(F)ccc32)cc(OC)c1OC [Compound 47] |  |  |  | > 50 | > 50 | > 50 |  |  |
|  | CSc1ccc(/C=C2/C(C)=C(CN(Cc3ccccc3)Cc3ccccc3)c3cc(F)ccc32)cc1 [Compound 48] | > 50 | > 50 | > 50 |  |  |  |  |  |
|  | CSc1ccc(/C=C2/C(C)=C(CN(Cc3ccc(F)cc3)Cc3ccc(F)cc3)c3cc(F)ccc32)cc1 [Compound 50] |  |  |  |  | > 50 |  | > 50 | > 50 |
|  | CSc1ccc(/C=C2/C(C)=C(CN(Cc3ccc(N(C)C)cc3)Cc3ccc(N(C)C)cc3)c3cc(F)ccc32)cc1 [Compound 51] |  |  |  |  | > 50 |  | > 50 | > 50 |
|  | CSc1ccc(/C=C2/C(C)=C(CN(Cc3ccc4ccccc4c3)Cc3ccc4ccccc4c3)c3cc(F)ccc32)cc1 [Compound 52] |  |  |  |  | > 50 |  | > 50 | > 50 |
|  | CSc1ccc(/C=C2/C(C)=C(CN(CCc3ccccc3)CCc3ccccc3)c3cc(F)ccc32)cc1 [Compound 53] |  |  |  |  | > 50 |  | > 50 | > 50 |
|  | CSc1ccc(/C=C2/C(C)=C(CN(Cc3ccco3)Cc3ccco3)c3cc(F)ccc32)cc1 [Compound 54] |  |  |  |  | > 50 |  | > 50 | 48.8 ± 20.3 |
|  | COc1cc(/C=C2/C(C)=C(CN(Cc3ccccc3)Cc3ccccc3)c3cc(F)ccc32)cc(OC)c1OC [Compound 55] |  |  |  |  | > 50 |  | > 50 | > 50 |
|  | COc1cc(/C=C2/C(C)=C(CN(Cc3ccc(F)cc3)Cc3ccc(F)cc3)c3cc(F)ccc32)cc(OC)c1OC [Compound 57] |  |  |  |  | > 50 |  | > 50 | > 50 |
| 95 to 97 | COc1cc(/C=C2/C(C)=C(CN(Cc3ccc4ccccc4c3)Cc3ccc4ccccc4c3)c3cc(F)ccc32)cc(OC)c1OC [Compound 58] | > 50 | > 50 | > 50 |  |  |  |  |  |
|  | COc1ccc(CN(CC2=C(C)/C(=C/c3cc(OC)c(OC)c(OC)c3)c3ccc(F)cc32)Cc2ccc(OC)cc2)cc1 [Compound 59] |  |  |  |  | > 50 |  | > 50 | > 50 |
|  | COc1cc(/C=C2/C(C)=C(CN(CCc3ccccc3)CCc3ccccc3)c3cc(F)ccc32)cc(OC)c1OC [Compound 60] | > 50 | > 50 | > 50 |  |  |  |  |  |
|  | COc1cc(/C=C2/C(C)=C(CN(Cc3ccco3)Cc3ccco3)c3cc(F)ccc32)cc(OC)c1OC [Compound 61] |  |  |  |  | > 50 |  | > 50 | > 50 |

From paper PMC5817852 (The Open Medicinal Chemistry Journal, 2018)
